For seven molecules, EC50, RATIO and IC50 results are on record in patent US5821038A, “Yeast with modified permeability” (priority 1994, dated 1998).

Like-named read-outs stand apart in the source and are kept apart here. Numbered stars: 1 amine (or outer) side, 2 acyl side, 3 side chain; on linkers, the order of the positions; unused ones are H or OH. Bridge positions count the residues as written; N and C are the ends. Square brackets hold non-standard residues; d marks the D form. Peptide text beside a SMILES is read from it. I, II: the chains in the order shown. Actinocin(9to1) = Cc1c2oc3c(C)ccc(C(=O)[*:1])c3nc-2c(C(=O)[*:2])c(N)c1=O; NMeV = CN[C@H](C(=O)O)C(C)C; Sar = CNCC(=O)O Where only a bound is given, the exact number is not on record here.

As a reminder, the EC50 is the concentration giving half of the maximal effect.

Type in all cases: cell-based, Saccharomyces cerevisiae
Assay [1] deals with 5247 (wt). The assay is described as follows: Growth inhibition (sensitivity to cytotoxic products) as measure of permeability, wild-type strain (Example 6). The method, then:
(§1) The strain of yeast used is the strain S. cerevisiae 5247 (Marcireau, 1992) of the ura3, trp1, MAT α genotype. This strain is transformed according to the method described by Gietz (Gietz, 1992).
(§2) The permeability of the yeast strains 5247 and yCM61 is determined by measurement of the sensitivity to different cytotoxic products. The different yeasts are inoculated at an optical density of 0.05 to 700 nm in YNB minimum medium correctly supplemented with bases and amino acids in the presence of an increasing concentration of xenobiotics. The cultures are placed at 28° C. and at 200 rpm for 48 hours. The optical density at 700 nm is then measured. The EC50 is determined as the xenobiotic concentration inhibiting the growth of the yeast by half compared with a control without xenobiotic.

Assay [2] relates to yCM61 (Δpdr1, Δpdr5, Δsnq2, Δerg6). The assay is described as follows: Growth inhibition (sensitivity to cytotoxic products) as measure of permeability, strain yCM61 (Example 6).
Source text: The strain yCM30 is transformed by the fragment prepared as described in Example 5 in 1a. After elimination of the selectable marker, the strain yCM45 (Δpdr1, Δpdr5, ura3, trp1, MAT α) is obtained. The strain yCM45 is transformed by the fragment prepared as described in Example 5 in 1b. After elimination of the selectable marker, the strain yCM51 (Δpdr1, Δpdr5, Δsnq2, ura3, trp1, MAT α) is obtained. The strain yCM51 is transformed by the fragment prepared as described in Example 1 in 1a. After elimination of the selectable marker, the strain yCM61 (Δpdr1, Δpdr5, Δsnq2, Δerg6, ura3, trp1, MAT α) is obtained.
as §2

Assay [3] concerns yCM63 (Δerg4). The assay is described as follows: Growth inhibition (sensitivity to cytotoxic products) as measure of permeability, strain yCM63. As to conditions: for RATIO: EC50 5247 (wt) / EC50 yCM63, 2880 min; for EC50: Saccharomyces cerevisiae, YNB minimum medium, 28° C., 48 hours, OD 700 nm. The method, then: (§3) The strain 5247 is transformed as described in 3) with the fragments prepared as described in 2a), 2b), 2c). After elimination of the selectable marker, the strains yCM30 (Δpdr1, ura3, trp1, MAT α), yCM63 (Δerg4, ura3, trp1, MAT α) and yCM65 (Δpdr1, Δerg4, ura3, trp1, MAT α) are obtained.
(§4) The permeability of the yeasts obtained in Example 1 is determined by measuring the sensitivity to different cytotoxic products. The different yeasts are inoculated at an optical density of 0.05 to 700 nm in YNB minimum medium correctly supplemented with bases and amino acids in the presence of an increasing concentration of xenobiotics. The cultures are placed at 28° C. and at 200 rpm for 48 hours. The optical density at 700 nm is then measured. The EC50 is then determined as the xenobiotic concentration inhibiting the growth of the yeast by half compared with a control without xenobiotic.

Assay [4] concerns yCM65 (Δpdr1, Δerg4). The assay is described as follows: Growth inhibition (sensitivity to cytotoxic products) as measure of permeability, strain yCM65. As to conditions: for EC50: Saccharomyces cerevisiae; for RATIO: EC50 5247 (wt) / EC50 yCM65, 2880 min. The method, then: as §3, §4
Assay [5] has as its system yCM57 (Δpdr1, Δerg6). The assay is described as follows: Growth inhibition (sensitivity to cytotoxic products) as measure of permeability, strain yCM57. The note with it: for RATIO: EC50 5247 (wt) / EC50 yCM57, 2880 min. The method, then:
as §4
The strain yCM30 is transformed by the fragment prepared as described in la. After elimination of the selectable marker, the strain yCM57 (Δpdr1, Δerg6, ura3, trp1, MAT α) is obtained.
(§5) This evaluation was carried out according to the procedure described in Example 2.

Assay [6] deals with yCM30 (Δpdr1). The assay is described as follows: Growth inhibition (sensitivity to cytotoxic products) as measure of permeability, strain yCM30. As to conditions: for EC50: Saccharomyces cerevisiae; for RATIO: EC50 5247 (wt) / EC50 yCM30, 2880 min. On the procedure:
as §3, §4, §5

The test system of assay [7] is 5247 (wt). The assay is described as follows: Growth inhibition (sensitivity to cytotoxic products) as measure of permeability, wild-type strain (Examples 2 and 4). As to conditions: for EC50: Saccharomyces cerevisiae; for RATIO: EC50 relative to wild type 5247, 2880 min. The method, then: as §1, §4, §5
Assay [8] concerns yCM55 (Δerg6). The assay is described as follows: Growth inhibition (sensitivity to cytotoxic products) as measure of permeability, strain yCM55. As to conditions: for EC50: Saccharomyces cerevisiae; for RATIO: EC50 5247 (wt) / EC50 yCM55, 2880 min. The method, then: as §4
The strain 5247 is transformed by the fragment prepared as described in 1a. After elimination of the selectable marker, the strain yCM55 (Δerg6,ura3, trp1, MAT α) is obtained.
as §5

The mark [9] stands for this setting: Saccharomyces cerevisiae, Example 6, strain 5247 (wt), YNB minimum medium, 28° C., 48 hours, OD 700 nm, read-out: EC50.
Where [10] appears, read: EC50 5247 (wt) / EC50 yCM61, 2880 min.
The mark [11] stands for this setting: Saccharomyces cerevisiae, Example 6, strain yCM61 (Δpdr1, Δpdr5, Δsnq2, Δerg6), YNB minimum medium, 28° C., 48 hours, OD 700 nm, read-out: EC50.
Setting [12] is: strain yCM65 (Δpdr1, Δerg4), YNB minimum medium, 28° C., 48 hours, OD 700 nm, read-out: EC50.
[13] abbreviates: strain yCM30 (Δpdr1), YNB minimum medium, 28° C., 48 hours, OD 700 nm, read-out: EC50.
[14] abbreviates: strain 5247 (wt), YNB minimum medium, 28° C., 48 hours, OD 700 nm, read-out: EC50.
Where [15] appears, read: strain yCM55 (Δerg6), YNB minimum medium, 28° C., 48 hours, OD 700 nm, read-out: EC50.

As for `CO[C@@H]1[C@@H](OC(N)=O)[C@@H](O)[C@H](Oc2ccc3c(O)c(NC(=O)c4ccc(O)c(CC=C(C)C)c4)c(=O)oc3c2C)OC1(C)C` [Novobiocin], the EC50 was 245 µM in assay [1] (setting [9]) and 9 µM in assay [2] (setting [11]). The RATIO in assay [2] (setting [10]) worked out at 27.
`COc1cccc2c1C(=O)c1c(O)c3c(c(O)c1C2=O)C[C@@](O)(C(=O)CO)C[C@@H]3O[C@H]1C[C@H](N)[C@H](O)[C@H](C)O1` [DOXORUBICIN, doxorubicin]: the RATIO in assay [3] worked out at 4.4; in assay [4] (strain yCM65 (Δpdr1, Δerg4)), 7.8; in assay [5] (strain yCM57 (Δpdr1, Δerg6)), 23.8; in assay [6] (strain yCM30 (Δpdr1)), 2.2; in assay [7] (strain 5247 (wt)), 1; in assay [8] (strain yCM55 (Δerg6)), 3.4. Also, the EC50 in assay [3] worked out at 9.2 µM; in assay [4] (setting [12]) it was 5.15 µM; in assay [5] (Saccharomyces cerevisiae, strain yCM57 (Δpdr1, Δerg6), YNB minimum medium, 28° C., 48 hours, OD 700 nm), 1.7 µM; in assay [6] (setting [13]) it was 18.4 µM; in assay [7] (setting [14]) it was 40.5 µM; in assay [8] (setting [15]) it was 12 µM.
On to `C[C@@H]1C[C@@H]([C@H](O)CC2CC(=O)NC(=O)C2)C(=O)[C@@H](C)C1` [Cycloheximide], for which the EC50 in assay [4] (48 h) was determined as 0.5 µM; in assay [1] (Saccharomyces cerevisiae, 48 h), 71 µM; in assay [6] (48 h), 2.5 µM; in assay [2] (Saccharomyces cerevisiae, 48 h), 0.142 µM; in assay [7] (48 h) it was 53 µM; in assay [8] (48 h), 2.3 µM. Also, the RATIO in assay [4] (strain yCM65 (Δpdr1, Δerg4)) is 106; in assay [5] (strain yCM57 (Δpdr1, Δerg6)), 265; in assay [6] (strain yCM30 (Δpdr1)) it was 21.2; in assay [2] (setting [10]), 500; in assay [7] (strain 5247 (wt)) it was 1; in assay [8] (strain yCM55 (Δerg6)), 23. The IC50 in assay [5] (Saccharomyces cerevisiae, 48 h, read-out: EC50) was found to be 0.2 µM.
As to `Cc1cc(C)nc(NC(=O)NS(=O)(=O)c2ccccc2C(=O)O)n1` [Sulphomethuron], the half-maximal effective concentration (EC50) in assay [1] (Example 6, strain 5247 (wt), YNB minimum medium, 28° C., 48 hours, OD 700 nm, read-out: EC50) is 6.9 µM; in assay [2] (Example 6, strain yCM61 (Δpdr1, Δpdr5, Δsnq2, Δerg6), YNB minimum medium, 28° C., 48 hours, OD 700 nm, read-out: EC50), less than 0.13 µM. Moreover, in assay [2] (setting [10]), the RATIO is on record as greater than 50.
For `Cc1c2oc3c(C)ccc(C(=O)N[C@@H]4C(=O)N[C@H](C(C)C)C(=O)N5CCC[C@H]5C(=O)N(C)CC(=O)N(C)[C@@H](C(C)C)C(=O)O[C@@H]4C)c3nc-2c(C(=O)N[C@@H]2C(=O)N[C@H](C(C)C)C(=O)N3CCC[C@H]3C(=O)N(C)CC(=O)N(C)[C@@H](C(C)C)C(=O)O[C@@H]2C)c(N)c1=O` [ACTINOMYCIN D, actinomycin D] (I: T[dV]P[Sar][NMeV] / II: T[dV]P[Sar][NMeV]; ester I:1-I:C, II:1-II:C; linker I:N-II:N via Actinocin(9to1)), the RATIO in assay [3] came to 3.7; in assay [4] (strain yCM65 (Δpdr1, Δerg4)), 4.1; in assay [5] (strain yCM57 (Δpdr1, Δerg6)), 31.9; in assay [6] (strain yCM30 (Δpdr1)) it was 1.9; in assay [7] (strain 5247 (wt)), 1; in assay [8] (strain yCM55 (Δerg6)), 4.3. In addition, the 50% effective concentration (EC50) in assay [3] came out at 6.4 µM; in assay [4] (setting [12]), 5.8 µM; in assay [6] (setting [13]), 12.7 µM; in assay [7] (setting [14]), 23.9 µM; in assay [8] (setting [15]), 5.6 µM. In assay [5] (Saccharomyces cerevisiae, strain yCM57 (Δpdr1, Δerg6), YNB minimum medium, 28° C., 48 hours, OD 700 nm, read-out: EC50 (the source's name)), the IC50 was 0.75 µM.
For the molecule `CC[C@H](C)C(=O)O[C@H]1C[C@@H](C)C=C2C=C[C@H](C)[C@H](CC[C@@H]3C[C@@H](O)CC(=O)O3)[C@H]21` [Lovastatin], the figures for the 50% effective concentration (EC50) in assay [1] (setting [9]) and in assay [2] (setting [11]) were 143 µM and 3.8 µM, respectively. Moreover, the RATIO in assay [2] (s. cerevisiae ycm61, 2880 min) is on record as 37.
Consider `CC[C@@]1(O)C(=O)OCc2c1cc1n(c2=O)Cc2cc3ccccc3nc2-1` [Camptothecin], for which the EC50 in assay [1] (Saccharomyces cerevisiae, 48 h) is greater than 574 µM; in assay [2] (Saccharomyces cerevisiae, 48 h) it was 5.74 µM. Moreover, in assay [2] (setting [10]), the RATIO is greater than 100.
